What was measured:
[1] = target: T1, human A1 adenosine receptor (hA1AR) (Homo sapiens, UniProt P30542); assay: radioligand binding assay at human A1AR; conditions: read-out: % inhibition at 10μM A1
T1 sequence (P30542 1-326): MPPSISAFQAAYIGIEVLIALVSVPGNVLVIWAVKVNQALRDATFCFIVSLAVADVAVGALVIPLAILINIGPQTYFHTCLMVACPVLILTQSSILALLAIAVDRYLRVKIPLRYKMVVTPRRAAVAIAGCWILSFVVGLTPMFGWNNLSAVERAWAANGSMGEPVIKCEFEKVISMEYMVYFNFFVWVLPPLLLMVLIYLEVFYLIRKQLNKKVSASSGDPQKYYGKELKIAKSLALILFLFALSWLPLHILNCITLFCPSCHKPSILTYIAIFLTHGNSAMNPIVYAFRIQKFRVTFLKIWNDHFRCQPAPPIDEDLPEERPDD

A2BAR = target: T2, A2BAR (Homo sapiens, UniProt P29275); format: cell-based
T2 sequence (P29275 1-332): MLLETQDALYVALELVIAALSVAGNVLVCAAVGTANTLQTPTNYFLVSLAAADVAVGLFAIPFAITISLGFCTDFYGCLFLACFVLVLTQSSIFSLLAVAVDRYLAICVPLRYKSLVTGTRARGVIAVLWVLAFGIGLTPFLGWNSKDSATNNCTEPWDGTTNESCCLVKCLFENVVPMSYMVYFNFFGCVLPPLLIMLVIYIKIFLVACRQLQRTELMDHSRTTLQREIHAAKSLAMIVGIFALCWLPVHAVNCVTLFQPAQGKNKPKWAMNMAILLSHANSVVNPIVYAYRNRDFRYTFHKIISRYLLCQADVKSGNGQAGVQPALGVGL

[2] = target: human A2A adenosine receptor (hA2AAR) (Homo sapiens, UniProt P29274); assay: radioligand binding assay at human A2AAR; conditions: free energy of binding divided by the number of heavy atoms
Chain of human A2A adenosine receptor (hA2AAR) (P29274 whole entry): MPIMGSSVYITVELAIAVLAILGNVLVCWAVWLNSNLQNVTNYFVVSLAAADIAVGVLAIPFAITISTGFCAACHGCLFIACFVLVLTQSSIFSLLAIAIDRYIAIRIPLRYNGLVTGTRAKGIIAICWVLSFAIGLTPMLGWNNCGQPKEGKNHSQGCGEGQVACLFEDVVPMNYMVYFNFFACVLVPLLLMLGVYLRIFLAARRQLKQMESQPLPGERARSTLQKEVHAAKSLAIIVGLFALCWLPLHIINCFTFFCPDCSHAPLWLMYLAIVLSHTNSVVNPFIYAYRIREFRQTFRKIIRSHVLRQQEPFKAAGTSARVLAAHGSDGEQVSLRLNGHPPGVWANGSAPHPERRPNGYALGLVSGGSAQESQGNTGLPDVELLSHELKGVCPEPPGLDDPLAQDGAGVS

Row | Compound | inhibition at 10 µM [1] [%] | % inhibition at 10μM A2B (inhibition of cAMP accumulation) (A2BAR; 10 μM compound, in the presence of 300 nM NECA, three independent experiments) | ligand efficiency (LE) [2] | inhibition at 10 µM (A2BAR; read-out: % inhibition at 10μM A2B (inhibition of cAMP accumulation)) [%]
1 | Cc1cccc(O[C@H](C)C(=O)Nc2nc(-c3ccccc3)n[nH]2)c1 [Compound 1] | 19 | no significant activity | 0.34 | 
2 | Cc1ccc(O[C@H](C)C(=O)Nc2nc(-c3ccco3)n[nH]2)cc1 [Compound 24] |  |  |  | -15
3 | CCCC(=O)Nc1nc(-c2ccccc2)n[nH]1 [Compound 27] |  |  | 0.48 | 
4 | O=C(Nc1nc(-c2ccccc2)n[nH]1)c1ccccc1 [Compound 29] |  |  | 0.44 | 
5 | COc1ccccc1C(=O)Nc1nc(-c2ccccc2)n[nH]1 [Compound 32] |  |  | 0.42 | 
